In PMC3493109 (Biochemistry, 2012):

Assays:
Type in all cases: binding
[1] = molecular target: glyoxylate carboligase (GCL) (Escherichia coli, UniProt P0AEP7, I393A/V51D); assay: CD titration at […] nm
[2] = molecular target: T1, glyoxylate carboligase (GCL) (Escherichia coli, UniProt P0AEP7, I393A); assay: CD titration at […] nm
[3] = molecular target: T1, glyoxylate carboligase (GCL); assay: CD titration at […] nm, Hill fit

T1 sequence (P0AEP7 2-593 I393A limits assumed): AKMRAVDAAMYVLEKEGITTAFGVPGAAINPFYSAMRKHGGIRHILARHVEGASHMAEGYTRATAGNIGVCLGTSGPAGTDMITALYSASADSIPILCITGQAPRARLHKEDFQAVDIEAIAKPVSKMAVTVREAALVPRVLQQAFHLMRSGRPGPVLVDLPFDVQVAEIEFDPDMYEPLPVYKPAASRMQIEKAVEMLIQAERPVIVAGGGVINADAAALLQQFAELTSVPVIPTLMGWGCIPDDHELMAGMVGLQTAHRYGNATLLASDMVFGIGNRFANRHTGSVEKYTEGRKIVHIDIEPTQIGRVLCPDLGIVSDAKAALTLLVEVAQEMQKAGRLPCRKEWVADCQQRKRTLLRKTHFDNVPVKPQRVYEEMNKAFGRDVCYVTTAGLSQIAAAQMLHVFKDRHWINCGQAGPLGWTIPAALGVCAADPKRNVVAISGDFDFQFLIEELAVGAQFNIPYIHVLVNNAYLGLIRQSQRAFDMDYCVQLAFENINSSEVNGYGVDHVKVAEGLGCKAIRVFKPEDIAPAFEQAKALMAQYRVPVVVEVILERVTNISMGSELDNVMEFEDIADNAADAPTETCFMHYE
Sequence of glyoxylate carboligase (GCL) (Escherichia coli, UniProt P0AEP7, I393A/V51D) (P0AEP7 2-593 V51D/I393A limits assumed): as the sequence (P0AEP7 2-593 I393A limits assumed) above, with V50D counted along it

SMILES	Kd [1]	Kd [2]	Kd [3]
COP(=O)(O)C(C)=O [MAP]	110 ± 100 µM	1.4 ± 0.09 mM	–
CC(=O)C(=O)O [pyruvate]	–	–	8.2 µM
